Test results published in patent US5703056A, “Non-invasive imaging of gene transfer” (priority 1995, dated 1997).
Read-outs that look alike come from different tables or passages of the source.

How the values were obtained:
[1] = physchem; assay type: physicochemical; details: octanol/water
Text: It is known that brain capillary permeability for many compounds is related to their octanol/water partition coefficient (P) and molecular weight. [[…]. Med. […] [Dischino, […]., and […]. Nucl. […] […]. Drug transfer across the blood brain barrier. In: Topics in Pharmaceutical Sciences. Ed.: Breimer, D. D., and […]. […] […]., and Rapoport, S. I. In: Handbook of Physiology. The Cardiovascular System. Microcirculation. Bethesda, Md.: Am. Physiol. Soc., sect. 2, Vol. IV, […]. 969-1000, 1984; […]. In: Implications of Blood-Brain Barrier and Its Manipulation. Basic Science Aspects. Ed. by Neuwelt, E., New York: Plenum, Vol. 1, […]. 132-55, 1988] […] [Xu, […]., Knaus, E. E., and Wiebe, L. I. In: Advances in Radiopharmacology. […]., Snowdon, G. M., Boniface, G. R., Univ. of Wollongong Printing Service, Wollongong, Australia, pp. 283-298, 1990] […] […]).

[2] = Calculated permeability surface area product (PS) of the cerebral capillaries; parameters: unit not given here; details: for PS*: calculated from measured log P and MW: log(PS)=5.2+log(P·Dm); for PS+: calculated from published log P and MW: log(PS)=5.2+log(P·Dm)
Text: Passage of the nucleosides across the blood brain barrier (BBB) is an important factor to consider in the design of radiolabelled 2'-fluoro-nucleoside analogues for imaging HSV1-TK expression in the brain. […] It is known that brain capillary permeability for many compounds is related to their octanol/water partition coefficient (P) and molecular weight. [Levin, V. N. J. Med. Chem., 23: 682-4, 1980] Several authors have described a relationship between the brain capillary permeability and log P or log P·Dm, where Dm is a measure of diffusibility. […] [Dischino, D. D., Welch, M. J., Kilbourn, M. N., and Raichle, M. E., J. Nucl. Med., 24: 1030-8, 1983] […] Fenstermacher, J. D. Drug transfer across the blood brain barrier. In: Topics in Pharmaceutical Sciences. Ed.: Breimer, D. D., and Speiser, P. Amsterdam: Elsevier, pp. 143-54, 1983; Fenstermacher, J. D., and Rapoport, S. I. In: Handbook of Physiology. The Cardiovascular System. Microcirculation. Bethesda, Md.: Am. Physiol. Soc., sect. 2, Vol. IV, pt. 2, chapt. 21, p. 969-1000, 1984; Fenstermacher, J. D. In: Implications of Blood-Brain Barrier and Its Manipulation. Basic Science Aspects. Ed. by Neuwelt, E., New York: Plenum, Vol. 1, Chapt. 6, pp. 132-55, 1988]

[3] = cited from earlier work; for lipophilicity and blood-brain barrier permeability compared with FIAU: compared with FIAU (FAIU [sic]), Iwashina et al. 1988
[4] = target: T1, HSV1-TK (Human alphaherpesvirus 1 strain 17, UniProt P0DTH5); assay: Accumulation of radiolabelled marker substrates in RG2TK+ transduced and RG2 wild-type cells, normalized to TdR; assay type: cell-based, herpes simplex virus
T1 sequence (P0DTH5 whole entry): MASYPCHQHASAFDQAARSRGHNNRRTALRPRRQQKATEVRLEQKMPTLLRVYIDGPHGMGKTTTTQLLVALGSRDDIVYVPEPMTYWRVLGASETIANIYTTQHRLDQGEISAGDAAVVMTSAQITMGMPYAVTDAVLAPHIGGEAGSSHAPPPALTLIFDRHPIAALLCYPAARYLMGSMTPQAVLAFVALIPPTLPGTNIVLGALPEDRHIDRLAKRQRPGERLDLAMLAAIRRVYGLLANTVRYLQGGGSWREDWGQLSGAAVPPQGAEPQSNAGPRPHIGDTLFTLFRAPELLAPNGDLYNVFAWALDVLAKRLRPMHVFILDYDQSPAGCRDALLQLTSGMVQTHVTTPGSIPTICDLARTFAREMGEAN
Experimental: Source of radiolabelled "marker substrates". […] No carrier-added 5-[^123 I]-deoxyuridine (IUdR) was prepared by reacting 2-deoxyuridine (UdR) with carrier-free ^123 I-labelled sodium iodide in an iodogen coated reaction vial.
Comparison of "marker substrates" for identifying HSV1-tk gene expression in tissue culture. […] Each of these substrates were developed for or used as an anti-viral agent; they are phosphorylated by HSV1-TK and can be radiolabelled for noninvasive imaging.
Wild-type (nontransduced) RG2 cells were studied as a reference control. […] The cells were dislodged from the Petri dishes with a soft scraper, poured into 15 ml conical tubes, centrifuged and the medium aspirated. The tubes were cut to facilitate removing cells; they were blotted, placed in pre-weighed vials, weighed and prepared for counting. Samples were assayed for ^3 H- and ^14 C-radioactivity using a Packard B1600 TriCarb beta spectrometer using dual-channel and external standard splash and quench correction techniques. The medium was also counted before and following incubation. The data was expressed as a harvested cell-to-medium concentration ratio (dpm/g cells.div.dpm/ml medium).
(§1) Data analysis. […] These two related measures are useful to evaluate the intensity of the images (e.g., high "sensitivity") and the ability to differentiate between HSV1-TK and endogenous-TK in the images (e.g., high "selectivity"). The "selectivity" measure is not interpreted as a relative sensitivity (i.e., a value of 1 indicating equal sensitivity) of the substrate to HSV1-TK vs. endogenous-TK. […] They are intended for the direct comparison of substrates only.

[5] = target: T1, HSV1-TK; assay: Single 120 minute paired accumulation of FIAU and IUdR by RG2TK+ and RG2 cells; assay type: cell-based, herpes simplex virus; details: Data from FIG. 6A
Experimental: The processing of cells and incubation medium was the same as that described above. A portion of the harvested cells was also processed for acid-insoluble (10% TCA) radioactivity. Decay corrected ^123 I-radioactivity was measured in a Packard AutoGamma 5550 Spectrometer. Samples were stored for 1 week to allow for ^123 I decay (12 half lives), and recounted afterwards in the Packard B1600 TriCarb beta spectrometer to determine ^3 H- and ^14 C-radioactivity.
All radioactivity measurements were expressed as a percent of administered dose per gram of tissue or per unit volume of fluid as described above.
as §1

[6] = system: RG2TK+ and RG2 tumors; assay: Tissue sampling of FIAU- and IUdR-derived radioactivity in i.c. and s.c. RG2TK+ and RG2 tumors; assay type: in vivo, rat; details: 24 h; for Sensitivity* (uptake in RG2TK+ tumor - uptake in RG2 tumor)/(HSV1TK mRNA/S28 RNA IOD in RG2TK+ cells): percent dose per gram
Experimental: Animal preparation and tumor inoculation Two male Fisher 344 rats weighing 250±20 g were anesthetized with a gas mixture consisting of 2% Isoflurane, 70% nitrous oxide and 30% oxygen. A 2% lidocaine gel was applied to the ears and the head was fixed with a stereotaxic device. After midline scalp incision, a burr hole was made through the skull 1 mm posterior and 3 mm lateral to the bregma. The tumor cell suspensions were aspirated into a 50 μl gas tight Hamilton syringe (Ga. 25) and attached to a stereotaxic device. The syringe needle was then inserted 6 mm deep into the caudate nucleus and the cell suspension (10^5 cells in 10 μl) was slowly injected over 2 minutes. RG2TK+ cells were injected into the left hemisphere, and RG2 cells were injected into the right hemisphere. Bone wax was applied to cover the skull defect and the scalp was closed with 4.0 silk suture. Subcutaneous inoculations (10^6 cells in 50 μl) were also performed (RG2TK+ cells into the left flank and RG2 cells into the right flank). After the procedure, the animals were marked and placed in standard cages with water and Rodent LabChow #5001 (Purina Mills, Inc.) ad libitum. Comparison of different "marker substrates" for identifying HSV1-TK expression in animals After 10 days of tumor growth, both animals received i.v. injections of [^123 I]-IUdR (400 uCi) and [^14 C]-FIAU (10 uCi). Radioactivity was allowed to clear from the body over 24 hours to reduce tissue background activity, predominantly due to radiolabelled iodide, the major metabolite of [^123 I]-IUdR. [Tjuvajev, J. G., Muraki, A., Ginos, J., Berk, J., Koutcher, J., Ballon, D., Beattie, B., Finn, R., and Biasberg, R., J. Nucl. Med., 34: 1152-62, 1993; Tjuvajev, J. G., Macapinlac, H. A., Daghighian, F., Scott, A. M., ginos, J. Z., Finn, R. D., Kothari, P., Desai, R., Zhang, Z., Beattie, B., Graham, M., Larson, S., and Blasberg, R. G., J. Nucl. Med., 35: 1407-17, 1994] The rats were killed at 24 hours under anesthesia; samples of tumor and adjacent tissue were disected and weighed, blood and plasma were obtained, and radioactivity was measured. Decay corrected ^123 I-radioactivity was assayed in a Packard AutoGamma 5550 Spectrometer; samples were stored in a refrigerator for 1 week to allow for ^123 I decay (>12 half lives) and ^14 C-radioactivity was measured in a Packard B1600 TriCarb beta spectrometer using external standard quench correction. Sample radioactivity was expressed as a percent of administered dose per gram of tissue of per unit volume of fluid.

[7] = log P values published by Xu, et al.

Row | Structure (SMILES) | logP [1] | PS* [2] | PS+ [2] | also measured
1 | O=c1[nH]c(=O)n([C@H]2C[C@H](O)[C@@H](CO)O2)cc1F [5-FUdR] | -1.52 | 0.03 | 0.03 | Log P+ ([3]; octanol/water): -1.51
2 | O=c1[nH]c(=O)n([C@H]2C[C@H](O)[C@@H](CO)O2)cc1/C=C/I [5-IVdU] | – | 10.29 | – | Log P* [1]: 1.10
3 | CC(C)(N)C(=O)O [AIB] | -2.48 | – | 0.00052 | –
4 | O=C(O)CN(CCN(CC(=O)O)CC(=O)O)CCN(CC(=O)O)CC(=O)O [DTPA] | -3.89 | – | 0.00009 | –
5 | CCc1cn([C@@H]2O[C@H](CO)[C@@H](O)[C@@H]2F)c(=O)[nH]c1=O [FEAU, 2'-fluoro-5-ethyl-1-β-D-arabinofuranosyl-uracil] | – | – | 0.31 | lipophilicity and blood-brain barrier permeability compared with FIAU [3]: higher lipophilicity and better permeability through the blood-brain barrier
6 | CCc1cn([C@@H]2O[C@H](CO)[C@@H](O)[C@H]2F)c(=O)[nH]c1=O [FERU, 5-ethyl-2'-fluoro-1-β-D-ribofuranosyl-uracil] | – | – | – | lipophilicity and blood-brain barrier permeability compared with FIAU [3]: higher lipophilicity and better permeability through the blood-brain barrier
7 | O=c1[nH]c(=O)n([C@@H]2O[C@H](CO)[C@@H](O)[C@@H]2F)cc1F [FFAU, 2'-fluoro-5-fluoro-1-β-D-arabinofuranosyl-uracil] | -1.09 | 0.08 | – | –
8 | O=c1[nH]c(=O)n([C@@H]2O[C@H](CO)[C@@H](O)[C@H]2F)cc1F [FFRU] | – | 0.02 | – | –
9 | O=c1[nH]c(=O)n([C@@H]2O[C@H](CO)[C@@H](O)[C@H]2F)cc1I [FIRU, 2'-fluoro-5-iodo-1-β-D-ribofuranosyl-uracil] | – | 0.45 | – | –
10 | O=c1[nH]c(=O)n([C@@H]2O[C@H](CO)[C@@H](O)[C@@H]2F)cc1C=CI [FIVAU, 2'-fluoro-5-iodovinyl-1-β-D-arabinofuranosyl-uracil] | – | – | – | lipophilicity and blood-brain barrier permeability compared with FIAU [3]: higher lipophilicity and better permeability through the blood-brain barrier
11 | O=c1[nH]c(=O)n([C@@H]2O[C@H](CO)[C@@H](O)[C@H]2F)cc1C=CI [FIVRU, 2'-fluoro-5-iodovinyl-1-β-D-ribofuranosyl-uracil] | 1.21 | 13.03 | – | lipophilicity and blood-brain barrier permeability compared with FIAU [3]: higher lipophilicity and better permeability through the blood-brain barrier
12 | O=c1[nH]c(=O)n([C@H]2C[C@H](O)[C@@H](CO)O2)cc1I [IUdR, 5-iodo-2'-deoxy-uridine] | -0.089 | 0.11 | 0.14 | Selectivity+ Sensitivity*/(substrate/TdR) for RG2 ([4]; Data from FIG. 5): 0.006; Sensitivity* Δ(substrate/TdR)/Δ(HSV1TK mRNA/S28 RNA IOD) ([4]; Data from FIG. 5): 0.0029; accumulation in bulk RG2TK+ cells relative to wild-type RG2 cells ([4]; normalized to TdR, FIGS. 4 and 5B): 1.2 fold; Selectivity+ Sensitivity*/(substrate/TdR) for RG2 [5]: 0.002; Sensitivity* Δ(substrate/TdR)/Δ(HSV1TK mRNA/S28 RNA IOD) [5]: 0.0011; Selectivity+ Sensitivity*/(uptake in RG2 tumor) ([6]; RG2TK+/RG2 i.c. tumors): 0.009; Sensitivity* (uptake in RG2TK+ tumor - uptake in RG2 tumor)/(HSV1TK mRNA/S28 RNA IOD in RG2TK+ cells) ([6]; RG2TK+/RG2 i.c. tumors): 0.0001; Selectivity+ Sensitivity*/(uptake in RG2 tumor) ([6]; RG2TK+/RG2 s.c. tumors): 0.020; Sensitivity* (uptake in RG2TK+ tumor - uptake in RG2 tumor)/(HSV1TK mRNA/S28 RNA IOD in RG2TK+ cells) ([6]; RG2TK+/RG2 s.c. tumors): 0.0007; Log P+ [3, 7]: -0.76
13 | Cc1cn([C@H]2C[C@H](O)[C@@H](CO)O2)c(=O)[nH]c1=O [TdR, thymidine] | -0.8 | – | – | Log P+ ([3]; octanol/water): -1.12
14 | O=c1ccn([C@H]2C[C@H](O)[C@@H](CO)O2)c(=O)[nH]1 [UdR, 2-deoxyuridine] | -0.131 | 0.05 | 0.03 | Log P+ [3, 7]: -1.48
